Patent publication US10196390B2, “TYK2 inhibitors and uses thereof” (Nimbus Lakshmi, Inc., priority 2014, dated 2019)

What was measured:
JAK2 = JAK2 (Homo sapiens (Human), UniProt O60674); experiment: JAK2 activity inhibition assay (radioactive kinase assay / Caliper assay); assay type: biochemical; details: read-out: JAK2 Ki
Procedure: The caliper machine employs an off chip mobility shift assay to detect phosphorylated peptide substrates from kinase assays, using microfluidics technology. […] Compounds are serially diluted in DMSO then further diluted in assay buffer (25 mM HEPES, pH 7.5, 0.01% Brij-35, 0.01% Triton, 0.5 mM EGTA). 5 ul of diluted compound was added into wells first, then 10 ul of enzyme mix was added into wells, followed by 10 uL of substrate mix (peptide and ATP in 10 mM MgCl2) to start reaction. Reaction was incubated at 28° C. for 25 min and then added 25 ul stop buffer (100 mM HEPES, 0.015% Brij-35, 50 mM EDTA), followed by reading with Caliper.

TYK2 = TYK2 (Homo sapiens (Human), UniProt P29597); experiment: Tyk2 activity inhibition assay (radioactive kinase assay / Caliper assay); assay type: biochemical
TYK2, sequence (P29597 whole entry): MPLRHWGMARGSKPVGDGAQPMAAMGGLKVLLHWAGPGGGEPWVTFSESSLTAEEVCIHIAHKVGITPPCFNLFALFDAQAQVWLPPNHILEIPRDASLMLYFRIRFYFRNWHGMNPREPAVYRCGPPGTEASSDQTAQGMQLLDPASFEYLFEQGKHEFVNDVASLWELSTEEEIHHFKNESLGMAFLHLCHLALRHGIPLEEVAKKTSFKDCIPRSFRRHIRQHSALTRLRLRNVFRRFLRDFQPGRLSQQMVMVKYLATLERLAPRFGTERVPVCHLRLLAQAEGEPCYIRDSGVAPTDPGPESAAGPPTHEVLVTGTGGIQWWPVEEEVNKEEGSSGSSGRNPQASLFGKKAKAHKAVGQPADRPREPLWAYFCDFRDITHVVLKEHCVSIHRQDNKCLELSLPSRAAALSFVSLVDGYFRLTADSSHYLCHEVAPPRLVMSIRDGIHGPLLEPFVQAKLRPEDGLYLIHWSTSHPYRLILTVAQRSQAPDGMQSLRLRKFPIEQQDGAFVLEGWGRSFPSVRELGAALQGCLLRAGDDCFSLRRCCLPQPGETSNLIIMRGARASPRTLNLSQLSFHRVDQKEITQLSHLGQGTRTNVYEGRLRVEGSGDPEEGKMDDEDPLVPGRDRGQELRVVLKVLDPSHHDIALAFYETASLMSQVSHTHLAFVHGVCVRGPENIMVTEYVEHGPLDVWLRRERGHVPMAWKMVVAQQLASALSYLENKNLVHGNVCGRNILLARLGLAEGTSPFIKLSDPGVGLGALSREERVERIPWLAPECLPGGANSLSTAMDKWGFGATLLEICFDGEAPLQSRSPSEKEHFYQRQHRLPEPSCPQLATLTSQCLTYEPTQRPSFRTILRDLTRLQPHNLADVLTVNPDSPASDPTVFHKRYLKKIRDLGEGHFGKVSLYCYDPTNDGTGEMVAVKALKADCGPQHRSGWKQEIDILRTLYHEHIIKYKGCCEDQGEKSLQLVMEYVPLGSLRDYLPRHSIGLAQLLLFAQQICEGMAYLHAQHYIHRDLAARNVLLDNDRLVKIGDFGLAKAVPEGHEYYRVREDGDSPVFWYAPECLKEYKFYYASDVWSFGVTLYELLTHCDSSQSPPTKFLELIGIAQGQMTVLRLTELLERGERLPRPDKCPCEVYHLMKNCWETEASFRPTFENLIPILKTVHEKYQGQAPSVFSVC
Procedure: Peptide substrate, [[…]], (20 μM) is prepared in reaction buffer (20 mM Hepes pH 7.5, 10 mM MgCl2, 1 mM EGTA, 0.02% Brij35, 0.02 mg/mL BSA, […], 2 mM DTT, 1% DMSO. TYK2 (Invitrogen) kinase is added, followed by compounds in DMSO. 33PATP is added to initiate the reaction in ATP at 10 μM. Kinase reaction is incubated for 120 min at room temp and reactions are spotted onto P81 ion exchange paper (Whatman #3698-915), and then washed extensively in 0.75% phosphoric acid, prior to reading the radioactivity counts. For JAK2 (Invitrogen) kinase assay the peptide substrate poly[Glu:Tyr](4:1), 0.2 mg/ml is used, in the reaction carried out the same as for TYK2.
The caliper machine employs an off chip mobility shift assay to detect phosphorylated peptide substrates from kinase assays, using microfluidics technology. The assays are carried out at ATP concentration equivalent to the ATP Km, and at 1 mM ATP. Compounds are serially diluted in DMSO then further diluted in assay buffer (25 mM HEPES, pH 7.5, 0.01% Brij-35, 0.01% Triton, 0.5 mM EGTA). 5 ul of diluted compound was added into wells first, then 10 ul of enzyme mix was added into wells, followed by 10 uL of substrate mix (peptide and ATP in 10 mM MgCl2) to start reaction. Reaction was incubated at 28° C. for 25 min and then added 25 ul stop buffer (100 mM HEPES, 0.015% Brij-35, 50 mM EDTA), followed by reading with Caliper. JAK2 at 1 nM final concentration and TYK2 at 9.75 nM are from Carna, and substrates used are ATP at 20 and 16 uM, respectively. JAK2 assay uses peptide 22 and TYK2 uses peptide 30 (Caliper), each at 3 uM.

JAK2, sequence (O60674 whole entry): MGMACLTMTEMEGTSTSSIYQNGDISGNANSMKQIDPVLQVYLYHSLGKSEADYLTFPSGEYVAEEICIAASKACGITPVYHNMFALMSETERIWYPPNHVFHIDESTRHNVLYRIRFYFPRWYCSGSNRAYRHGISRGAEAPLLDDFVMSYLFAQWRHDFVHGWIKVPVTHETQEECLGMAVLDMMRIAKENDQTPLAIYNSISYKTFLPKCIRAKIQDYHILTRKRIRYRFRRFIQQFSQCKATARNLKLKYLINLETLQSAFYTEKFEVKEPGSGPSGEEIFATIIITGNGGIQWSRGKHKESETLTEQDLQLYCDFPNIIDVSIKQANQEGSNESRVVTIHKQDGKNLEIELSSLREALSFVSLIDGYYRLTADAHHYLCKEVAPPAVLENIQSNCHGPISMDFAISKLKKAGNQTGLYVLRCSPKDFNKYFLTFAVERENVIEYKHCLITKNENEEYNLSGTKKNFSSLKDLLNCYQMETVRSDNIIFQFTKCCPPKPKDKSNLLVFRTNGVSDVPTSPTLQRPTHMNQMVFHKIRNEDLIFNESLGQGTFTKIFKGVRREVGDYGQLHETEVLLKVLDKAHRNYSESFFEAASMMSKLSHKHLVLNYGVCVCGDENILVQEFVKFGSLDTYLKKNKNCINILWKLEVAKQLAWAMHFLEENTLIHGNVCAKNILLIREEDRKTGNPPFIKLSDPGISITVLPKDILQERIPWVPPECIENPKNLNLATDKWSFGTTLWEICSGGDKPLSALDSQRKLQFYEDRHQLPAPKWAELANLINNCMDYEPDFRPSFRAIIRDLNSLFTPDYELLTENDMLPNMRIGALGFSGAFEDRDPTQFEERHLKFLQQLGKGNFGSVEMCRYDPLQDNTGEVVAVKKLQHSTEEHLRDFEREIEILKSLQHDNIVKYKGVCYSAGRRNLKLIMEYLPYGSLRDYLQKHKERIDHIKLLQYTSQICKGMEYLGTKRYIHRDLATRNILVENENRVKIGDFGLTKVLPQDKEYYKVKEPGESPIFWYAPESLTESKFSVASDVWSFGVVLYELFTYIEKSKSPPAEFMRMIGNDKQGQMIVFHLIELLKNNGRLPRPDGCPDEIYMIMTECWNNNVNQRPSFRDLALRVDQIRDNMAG

| SMILES | Ki (JAK2) | Ki (TYK2) |
| --- | --- | --- |
| C[C@H](CO)NC(=O)Cc1ccc(Nc2nc(-c3c(F)cccc3F)nc3c2C(=O)NC3)cc1 [Compound I-63, (R)-2-(4-((2-(2,6-difluorophenyl)-5-oxo-6,7-dihydro-5H-pyrrolo[3,4-d]pyrimidin-4-yl)amino)phenyl)-N-(1-hydroxypropan-2-yl)acetamide] | 100 to 1000 nM | < 10 nM |
| O=C1NCc2nc(-c3c(F)cccc3F)nc(Nc3cnn(CC(=O)N4CCC[C@H]4CO)c3)c21 [Compound I-68, (S)-2-(2,6-difluorophenyl)-4-((1-(2-(2-(hydroxymethyl)pyrrolidin-1-yl)-2-oxoethyl)-1H-pyrazol-4-yl)amino)-6,7-dihydro-5H-pyrrolo[3,4-d]pyrimidin-5-one] | > 1000 nM | 10 to 100 nM |
| CCNC(=O)Cn1cc(Nc2nc(-c3c(F)cccc3F)nc3c2C(=O)NC3)cn1 [Compound I-69, 2-(4-((2-(2,6-difluorophenyl)-5-oxo-6,7-dihydro-5H-pyrrolo[3,4-d]pyrimidin-4-yl)amino)-1H-pyrazol-1-yl)-N-ethylacetamide] | > 1000 nM | 10 to 100 nM |
| C[C@H](CO)NC(=O)Cn1cc(Nc2nc(-c3c(F)cccc3F)nc3c2C(=O)NC3)cn1 [Compound I-70, (R)-2-(4-((2-(2,6-difluorophenyl)-5-oxo-6,7-dihydro-5H-pyrrolo[3,4-d]pyrimidin-4-yl)amino)-1H-pyrazol-1-yl)-N-(1-hydroxypropan-2-yl)acetamide] | > 1000 nM | 10 to 100 nM |
| O=C(O)Cn1cc(Nc2nc(-c3c(F)cccc3F)nc3c2C(=O)NC3)cn1 [Compound I-71, 2-(4-((2-(2,6-difluorophenyl)-5-oxo-6,7-dihydro-5H-pyrrolo[3,4-d]pyrimidin-4-yl)amino)-1H-pyrazol-1-yl)acetic Acid] | > 1000 nM | 10 to 100 nM |
| O=C(Cc1ccc(Nc2nc(-c3c(F)cccc3F)nc3c2C(=O)NC3)cc1)NCC1CNC1 [Compound I-72, N-(azetidin-3-ylmethyl)-2-(4-((2-(2,6-difluoro-phenyl)-5-oxo-6,7-dihydro-5H-pyrrolo[3,4-d]pyrimidin-4-yl)amino)-phenyl)acetamide] | 100 to 1000 nM | < 10 nM |
| O=C(Cc1ccc(Nc2nc(-c3c(F)cccc3F)nc3c2C(=O)NC3)cc1)N[C@@H]1CCNC1 [Compound I-73, (R)-2-(4-((2-(2,6-difluorophenyl)-5-oxo-6,7-dihydro-5H-pyrrolo[3,4-d]pyrimidin-4-yl)amino)phenyl)-N-(pyrrolidin-3-yl)acetamide] | 100 to 1000 nM | < 10 nM |
| C[C@@H](CO)NC(=O)Cc1ccc(Nc2nc(-c3c(F)cccc3F)nc3c2C(=O)NC3)cc1 [Compound I-74, (S)-2-(4-((2-(2,6-difluorophenyl)-5-oxo-6,7-dihydro-5H-pyrrolo[3,4-d]pyrimidin-4-yl)amino)phenyl)-N-(1hydroxypropan-2-yl)acetamide] | 100 to 1000 nM | < 10 nM |
| C[C@H](O)CNC(=O)Cc1ccc(Nc2nc(-c3c(F)cccc3F)nc3c2C(=O)NC3)cc1 [Compound I-75, (S)-2-(4-((2-(2,6-difluorophenyl)-5-oxo-6,7-dihydro-5H-pyrrolo[3,4-d]pyrimidin-4-yl)amino)phenyl)-N-(2-hydroxy-propyl)acetamide] | 100 to 1000 nM | < 10 nM |
| CC(C)(O)CNC(=O)Cc1ccc(Nc2nc(-c3c(F)cccc3F)nc3c2C(=O)NC3)cc1 [Compound I-76, 2-(4-((2-(2,6-difluorophenyl)-5-oxo-6,7-dihydro-5H-pyrrolo[3,4-d]pyrimidin-4-yl)amino)phenyl)-N-(2-hydroxy-2-methylpropyl)acetamide] | 10 to 100 nM | < 10 nM |
| C[C@@H](O)CNC(=O)Cc1ccc(Nc2nc(-c3c(F)cccc3F)nc3c2C(=O)NC3)cc1 [Compound I-77, (R)-2-(4-((2-(2,6-difluorophenyl)-5-oxo-6,7-dihydro-5H-pyrrolo[3,4-d]pyrimidin-4-yl)amino)phenyl)-N-(2-hydroxy-propyl)acetamide] | 100 to 1000 nM | < 10 nM |
| O=C(O)Cc1ccc(Nc2nc(-c3c(F)cncc3F)nc3c2C(=O)NC3)cc1 [Compound I-85, 2-(4-((2-(3,5-difluoropyridin-4-yl)-5-oxo-6,7-dihydro-5H-pyrrolo[3,4-d]pyrimidin-4-yl)amino)phenyl)acetic Acid] | > 1000 nM | 10 to 100 nM |
| O=C1NCc2nc(-c3c(F)cccc3F)nc(Nc3ccc(CC(=O)N4CCOC[C@H]4C(=O)O)cc3)c21 [Compound I-112, (S)-4-(2-(4-((2-(2,6-difluorophenyl)-5-oxo-6,7-dihydro-5H-pyrrolo[3,4-d]pyrimidin-4-yl)amino)phenyl)acetyl)morpholine-3-carboxylic Acid] | 100 to 1000 nM | < 10 nM |
| O=C1NCc2nc(-c3c(F)cccc3Cl)nc(Nc3ccc(C4CCNC4=O)cc3)c21 (stereo not shown) [Compound I-113, 2-(2-chloro-6-fluorophenyl)-4-((4-(2-oxopyrrolidin-3-yl)phenyl)-amino)-6,7-dihydro-5H-pyrrolo[3,4-d]pyrimidin-5-one] | 100 to 1000 nM | < 10 nM |
| COCCC1(c2ccc(Nc3nc(-c4c(F)cccc4F)nc4c3C(=O)NC4)cc2)CCNC1=O (stereo not shown) [Compound I-116, 2-(2,6-difluorophenyl)-4-((4-(3-(2-methoxyethyl)-2-oxopyrrolidin-3-yl)phenyl)amino)-6,7-dihydro-5H-pyrrolo[3,4-d]pyrimidin-5-one] | 10 to 100 nM | < 10 nM |

Second part, the compound after the results:

| Ki (JAK2) | Ki (TYK2) | SMILES |
| --- | --- | --- |
| 100 to 1000 nM | < 10 nM | O=C(Cc1ccc(Nc2nc(-c3c(F)cccc3F)nc3c2C(=O)NC3)cc1)NCCO [Compound I-79, 2-(4-((2-(2,6-difluorophenyl)-5-oxo-6,7-dihydro-5H-pyrrolo[3,4-d]pyrimidin-4-yl)amino)phenyl)-N-(2-hydroxy-ethyl)acetamide] |
| 100 to 1000 nM | < 10 nM | O=C(Cc1ccc(Nc2nc(-c3c(F)cccc3Cl)nc3c2C(=O)NC3)cc1)N[C@@H]1CCNC1 [Compound I-81, (R)-2-(4-((2-(2-chloro-6-fluorophenyl)-5-oxo-6,7-dihydro-5H-pyrrolo[3,4-d]pyrimidin-4-yl)amino)phenyl)-N-(pyrrolidin-3-yl)acetamide] |
| > 1000 nM | 10 to 100 nM | O=C(O)Cc1ccc(Nc2nc(-c3c(F)cccc3C(F)(F)F)nc3c2C(=O)NC3)cc1 [Compound I-82, 2-(4-((2-(2-fluoro-6-(trifluoromethyl)phenyl)-5-oxo-6,7-dihydro-5H-pyrrolo[3,4-d]pyrimidin-4-yl)amino)phenyl)acetic Acid] |
| 100 to 1000 nM | 10 to 100 nM | O=C(Cc1ccc(Nc2nc(-c3c(F)cccc3C(F)(F)F)nc3c2C(=O)NC3)cc1)NC1CCNCC1 [Compound I-83, 2-(4-((2-(2-fluoro-6-(trifluoromethyl)phenyl)-5-oxo-6,7-dihydro-5H-pyrrolo[3,4-d]pyrimidin-4-yl)amino)phenyl)-N-(piperidin-4-yl)acetamide] |
| 10 to 100 nM | < 10 nM | O=C1NCc2nc(-c3c(F)cccc3F)nc(Nc3ccc(CC(=O)N4CCS(=O)(=O)CC4)cc3)c21 [Compound I-84, 2-(2,6-difluorophenyl)-4-((4-(2-(1,1-dioxidothiomorpholino)-2-oxoethyl)phenyl)amino)-6,7-dihydro-5H-pyrrolo[3,4-d]pyrimidin-5-one] |
| 10 to 100 nM | < 10 nM | O=C1NCc2nc(-c3c(F)cccc3F)cc(Nc3ccc([C@H]4CCNC4=O)cn3)c21 [Compound I-91, (R)-2-(2,6-difluorophenyl)-4-((5-(2-oxopyrrolidin-3-yl)pyridin-2-yl)amino)-6,7-dihydro-5H-pyrrolo[3,4-b]pyridin-5-one] |
| 10 to 100 nM | < 10 nM | O=C1NCc2nc(-c3c(F)cccc3F)cc(Nc3ccc([C@@H]4CCNC4=O)cn3)c21 [Compound I-92, (S)-2-(2,6-difluorophenyl)-4-((5-(2-oxopyrrolidin-3-yl)pyridin-2-yl)amino)-6,7-dihydro-5H-pyrrolo[3,4-b]pyridin-5-one] |
| 100 to 1000 nM | 10 to 100 nM | COC(=O)[C@@H]1COCCN1C(=O)Cc1ccc(Nc2nc(-c3c(F)cccc3F)nc3c2C(=O)NC3)cc1 [Compound I-111, methyl (S)-4-(2-(4-((2-(2,6-difluorophenyl)-5-oxo-6,7-dihydro-5H-pyrrolo[3,4-d]pyrimidin-4-yl)amino)phenyl)acetyl)morpholine-3-carboxylate] |
